Measured values from article doi:10.1101/2024.12.16.628703v1 (bioRxiv, 2024).
Marks after values point to notes of the source that are not given here.

What was measured:
E. huxleyi = assay: CPP translocation by flow cytometry; type: cell-based, Emiliania huxleyi; conditions: for FITC-positive cells / FITC-positive cells achieved over the range tested: titer experiment, flow cytometry, average of 2 experiments; for FITC-positive cells achieved over the range tested: 20 to 320 µM CPP
G. oceanica = assay: CPP translocation by flow cytometry; type: cell-based, Gephyrocapsa oceanica; conditions: for increase in median fluorescence per increase in concentration of 1 µM: regression of titer data, FITC-positive population; for increase in median fluorescence per increase in concentration of 1 µM / regression equation, Median Fluorescence versus CPP concentration: separate experiment; for regression equation, Median Fluorescence versus CPP concentration: titer data 20-320 µM, flow cytometry ex 488 / em 525 nm
I. galbana [1] = assay: CPP translocation by flow cytometry; type: cell-based, Isochrysis galbana; conditions: for translocation (FITC-positive cells) / percentage of cells penetrated (FITC-positive): DOE, trypsin wash; for translocation (FITC-positive cells): FITC-Ahx-CPP 2 µM; for translocation (FITC-positive cells) / percentage of cells penetrated (FITC-positive) / FITC-positive cells achieved over the range tested / FITC-positive cells: flow cytometry; for percentage of cells penetrated (FITC-positive): FITC-Ahx-CPP 10 µM; for FITC-positive cells achieved over the range tested / FITC-positive cells: titer experiment, single experiment; for FITC-positive cells achieved over the range tested: 20 to 320 µM CPP
I. galbana [2] = assay: Viability / cell proliferation after CPP transfection; type: cell-based, Isochrysis galbana; conditions: growth curve 14 days
animal cells = conditions: ref [7],[8],[23]; cited from earlier work
algae = conditions: ref [7],[8],[23]; cited from earlier work
[3] = titer data 20-320 µM, separate experiment, flow cytometry ex 488 / em 525 nm

Sequence | FITC-positive cells (E. huxleyi; 20 µM CPP) | FITC-positive cells (E. huxleyi; 160 µM CPP) | FITC-positive cells (E. huxleyi; 320 µM CPP) | FITC-positive cells achieved over the range tested (E. huxleyi) | increase in median fluorescence per increase in concentration of 1 µM (G. oceanica) [RFU] | regression equation, Median Fluorescence versus CPP concentration (G. oceanica) | translocation (FITC-positive cells) (I. galbana [1]) | percentage of cells penetrated (FITC-positive) (I. galbana [1]) | FITC-positive cells achieved over the range tested (I. galbana [1]) [%] | further results
GRKKRRQRRRPPQ [TAT, transactivating transcriptional activator] | less than 20% | over 40% | over 60% | < 80% | 53 | 10953 + 52.48 * TAT concentration | do not translocate | do not translocate | < 20 | regression equation, Median Fluorescence versus CPP concentration (E. huxleyi; [3]): 15145 + 35.47 * TAT concentration; regression equation, Median Fluorescence versus CPP concentration (I. galbana [1]; [3]): 16534 + 11.73 * TAT concentration
LLIILRRRIRKQAHAHSK [pVEC, murine vascular endothelial cadherin] | > 80% | more than 90% | over 95% | more than 80% | 184 | 16133 + 184.1 * pVEC concentration | – | 39% | 80 | effect on median fluorescence with rising concentration (E. huxleyi; titer experiment 20-320 µM): reaches a plateau from 160 to 320 µM; optimal concentration for translocation, irrespective of viability (E. huxleyi; titer experiment 20-320 µM): 160 µM; optimal concentration for translocation, irrespective of viability (G. oceanica; titer experiment 20-320 µM): 160 µM; percent-positive achieved over the range tested (G. oceanica; titer experiment, 20 to 320 µM CPP, flow cytometry, average of 2 experiments): more than 80%; optimal concentration for translocation, irrespective of viability (I. galbana [1]; titer experiment 20-320 µM): 80 µM; FITC-positive cells (I. galbana [1]; 20 µM CPP): less than 20%; FITC-positive cells (I. galbana [1]; 80 µM CPP): over 90%; FITC-positive cells (I. galbana [1]; 160 µM CPP): approximately 85%; proliferation of cells sorted for high FITC fluorescence (I. galbana [2]; 160 and 320 µM pVEC, sorted by FACS): proliferation of viable cells; viability after CPP treatment (I. galbana [2]; pVEC at 20 µM, sorted cells): apparent decrease in viability
RQIKIWFQNRRMKWKK [pAntp, antennapedia homeodomain] | – | – | – | – | – | – | do not translocate | – | – | cytotoxicity at concentrations as low as (animal cells): 40 µM; cytotoxicity at concentrations as low as (algae): 10 µM
